Test results from paper PMC11170759, “Advancing Parkinson’s Disease Diagnostics: The Potential of Arylpyrazolethiazole Derivatives for Imaging α-Synuclein Aggregates” (ACS Omega, 2024).
Values joined by “and” are separate entries in the source; they are usually repeats but may differ in a detail not shown here. Identical values can stand only once. Each block holds one compound with its values, some of them ahead of it.

Legend:
α-synuclein aggregates = molecular target: α-synuclein aggregates; design: method as in PMID 34577548; conditions: literature ligands of Figure 1; read-out: Ki α-syn; cited from earlier work
Aβ1-42 = molecular target: Aβ1-42; design: method as in PMID 34577548; conditions: literature ligands of Figure 1; cited from earlier work
[1] = molecular target: human recombinant α-syn fibrils (Homo sapiens, UniProt P37840); assay: In vitro competition binding assay against [3H]MODAG-001 on α-syn fibrils; conditions: for Ki: competition against 1 nM [3H]MODAG-001, α-syn fibrils 50 nM, mean Ki ± SEM; for binding affinity to α-syn fibrils (in words): competition against [3H]MODAG-001; for selectivity for α-syn over Aβ: ratio of Ki Aβ to Ki α-syn fibrils
Protocol: (§1) The APT library underwent in vitro testing to evaluate its binding affinity to human recombinant α-syn fibrils. Promising compounds were further tested on Aβ fibrils. […] Since the DPP and APT class of compounds share similarities, the APT library was tested in a competition binding assay with [^3H]MODAG-001 to determine its relative binding affinity and inhibition constant (Ki). The binding assay measured the displacement of the radioligand by increasing concentrations of competitor compounds, using fixed concentrations of fibrils and radioligand.
(§2) The dissociation constant (Kd) values of [^3H]MODAG–001 for human recombinant α-syn and synthetic human Aβ1–42 fibrils have previously been determined using saturation binding assays.[30] To determine the relative binding affinity (inhibition constant, Ki) of test compounds, competition binding assays of [^3H]MODAG-001 were performed. […] Human recombinant α-syn (50 nM) and synthetic human Aβ1–42 fibrils (1 μM) diluted in PBS (Gibco DPBS, no calcium, no magnesium, Thermo Fisher Scientific, Waltham, MA, USA) were incubated with increasing concentrations of test compounds (5 pM to 10 μM) against 1 nM [^3H]MODAG–001 in 30 mM Tris–HCl, 0.1% bovine serum albumin, and 0.05% Tween20 in 96-well micro test low-binding plates (ratiolab GmbH, Dreieich, Germany) to a total volume of 200 μL/well. Plates were incubated on a shaker (MaxQ 6000, Thermo Fisher Scientific Inc., Marietta, OH, USA) at 50 rpm for 2 h at 37 °C, covered by removable sealing tapes (PerkinElmer, Waltham, MA, USA). Vacuum filtration and read-out were performed as previously reported (Kuebler, Buss et al. 2021). Briefly, a glass fiber Filtermat B (PerkinElmer, Waltham, MA, USA) incubated with 0.5% polyethylenimine (PEI; Sigma-Aldrich Chemie GmbH, Taufkirchen, Germany) for 30 min at 4 °C before filter harvesting was used with a FilterMate Harvester (PerkinElmer, Waltham, MA, USA). Melt-on scintillator sheets (MeltiLex B/HS, PerkinElmer, Waltham, MA, USA) were molten onto dried filters. Accumulation of tritium was counted in a liquid scintillation Wallac MicroBeta TriLux counter (PerkinElmer, Waltham, MA, USA) at 2 min per well. Radioactivity in counts per minute for each concentration of the test compound was normalized to the radioactivity obtained in the absence of the test compound for conversion to percentage binding of the reference tracer. The resulting values were plotted against increasing concentrations of the test compounds. Data points were fitted using nonlinear regression analysis in GraphPad Prism (GraphPad Software, Inc., Version 8.4.0, La Jolla, CA, USA). The binding curve for [^3H]MODAG-001 saturation assay on α-syn fibrils is reported in the Supporting Information (Figure S6).

[2] = LogD determination (octanol/PBS); assay type: physicochemical; conditions: n = 3
Protocol: The logD was calculated experimentally by adding [^11C]APT-13 (1.5 MBq) to a 1.5 mL Eppendorf vial containing 500 μL of octanol (OCT) and 500 μL of PBS. The vial was vigorously vortexed and then, to achieve effective phase separation, centrifuged. Aliquots of 350 μL were collected from both OCT and PBS phases. The OCT sample was further washed with 350 μL of PBS; the phases mixture was shaken and centrifuged, and 200 μL of both phases were taken into new reaction tubes. The amount of radioactivity in each sample was quantified using a γ-counter. The log OCT/PBS values were calculated from the mean of n = 3 determinations (Table S3).
Table S3. Results from LogD determination assay.
C-11 CPM Description Mean value Mean value * dil

Serum stability assay = assay type: in vitro ADME; conditions: 37 °C, within 90 min
Protocol: Human serum was obtained from human male AB plasma, USA origin, sterile-filtered (Sigma-Aldrich, St. Louis, MO, USA).
The tracer formulation was mixed with an equal volume of human serum (250 μL) and incubated into a thermo-shaker at 37 °C, 300 rpm. At different time points (0, 15, 30, 60, and 90 min), 70 μL samples were drawn and mixed with ice-cold acetonitrile (1:1 dilution) and quickly vortexed. The dilute sample was incubated for 2 min on ice and centrifuged (MiniSpin centrifuge, Eppendorf) for 2 min at 13,400 rpm. An aliquot of the supernatant (120 μL) was analyzed by analytical radio-HPLC on a Luna C18(2), 5 μm, 250 × 4.6 mm column with 35% ACN in 0.1% aqueous TFA as mobile phase and at a flow rate of 1.5 mL/min in 10 min. The radiolabeled product was eluted at a retention time of 5.9 ± 0.2 min (Figure S5).

[3] = In vivo PET/MR imaging in healthy wild-type mice; design: species or system mice (C57BL/6J); conditions: iv
Protocol: To assess the pharmacokinetic profile of [^11C]APT-13 in vivo, wild-type mice (n = 3) were iv injected, and the organ distribution was assessed over 60 min with dynamic PET and anatomical MR imaging (Figure 7A). […] Tracer clearance was largest through the liver (SUV ≈ 5), and high uptake was also observed in the heart (SUV ≈ 6) and lungs (SUV ≈ 5). Uptake with fast clearance was also observed in the kidney, indicating renal excretion within the first few minutes (Figure 7C).
To evaluate the pharmacokinetics of [^11C]APT-13, PET and subsequent MRI scans were performed in healthy mice (female, 21 weeks old, C57BL/6J) to determine brain uptake and washout as well as organ uptake of the liver, lungs, heart, kidneys, and brain. Scans were performed in a small animal Inveon PET scanner (Siemens Healthcare, Erlangen, Germany) and a 7T small animal MRI scanner (Bruker BioSpin GmbH, Ettlingen, Germany). The mice (n = 3) were anesthetized with 1.5% isoflurane evaporated in 100% oxygen at a flow of 0.8 L/min, and a catheter was placed in the tail vein. The body temperature was kept at 37 °C by using a feedback temperature control unit for a heat pump that was connected to the PET bed. Five seconds after the start of the PET acquisition, 15.2 ± 0.5 MBq (410 ± 13 μCi) of [^11C]APT-13 was injected intravenously. PET data were acquired in a dynamic scan for 60 min plus an extra 13 min of transmission measurement with a ^57Co-source for attenuation correction. Subsequently, mice were placed in the same bed position in the MRI, and an anatomical scan was performed using a Turbo RARE T2 sequence. For analysis, the 60 min of acquired PET data were divided into 39-time frames (12 × 5, 6 × 10, 6 × 30, 5 × 60, and 10 × 300 s) and reconstructed using the OSEM3D reconstruction algorithm. The PET scans were coregistered to the whole-body MRI scan using PMOD software (version 4.203; PMOD Technologies, Zürich, Switzerland), and the volume of interest (VOI) of the different organs (liver, lungs, heart, kidney, and brain) were hand-drawn according to the anatomical localization. VOI were selected from the mouse brain atlas in PMOD, time activity curves were extracted, and SUV were calculated by normalizing to the injected activity and animal weight.

[4] = molecular target: T1, synthetic human Aβ1–42 fibrils (Homo sapiens, UniProt P05067); assay: In vitro competition binding assay against [3H]MODAG-001 on Aβ1–42 fibrils; conditions: for Ki: competition against 1 nM [3H]MODAG-001, Aβ1–42 fibrils 1 μM, mean Ki ± SEM
T1 construct: Synthetic lyophilized human Aβ1–42 peptide; purchased EMC Microcollections GmbH (Tuebingen, Germany); host or cells: chemical synthesis
Protocol: as §1
α-Syn fibrils were generated as the previously reported method.[30] The generation of Aβ1–42 fibril was adapted from Bagchi et al. and previously described by Kuebler et al.[16],[31] Synthetic lyophilized human Aβ1–42 peptide with >90% purity purchased from EMC Microcollections GmbH (Tuebingen, Germany) was dissolved in dimethyl sulfoxide (DMSO; 5 mg in 221.5 μL). Deionized water (4.1 mL) and 1 M Tris–HCl (111 μL, pH 7.6) were added to obtain a final monomeric concentration of 250 μM. Aggregation was induced by incubating the monomers in Eppendorf Thermomixer at 37 °C with shaking at 800 rpm for 72 h. Generated fibrils were sonicated for 3 min in a water bath (Elmasonic S 60H, Elma Schmidbauer GmbH, Singen, Germany). The final products were aliquoted, frozen on dry ice, and stored at −80 °C until use. Aβ1–42 fibril quality was evaluated via thioflavin (ThT) fluorescence and radioligand saturation assay with [^3H]PiB and [^3H]MODAG-001.
as §2

α-syn fibrils = molecular target: α-syn fibrils; design: method as in PMID 33369690; conditions: saturation binding, recombinant fibrils; cited from earlier work
Aβ1-42 fibrils = molecular target: Aβ1-42 fibrils; design: method as in PMID 33369690; conditions: saturation binding, recombinant fibrils; read-out: Kd Aβ1-42 (reported); cited from earlier work

T1 sequence (P05067 672-713): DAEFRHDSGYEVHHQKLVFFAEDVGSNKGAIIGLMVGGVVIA

Structure (SMILES): Fc1ccc(-c2csc(-c3nc(-c4cnc5c(c4)OCO5)cs3)n2)cn1 [d8]
Ki (α-synuclein aggregates): 0.1 nM
Ki (Aβ1-42): 386 nM

Structure (SMILES): O=C(/C=C/C=C/C=C/c1ccc([N+](=O)[O-])cc1)c1ccc(OCC(O)CF)cc1 (centres unmarked) [FHCL-2]
Ki (α-synuclein aggregates): 3.4 ± 0.1 nM
Ki Aβ1-42 (Aβ1-42): no competition

Structure (SMILES): CN(C)c1ccc(-c2cc(-c3nccs3)[nH]n2)cc1 [APT-5, N,N-Dimethyl-4-(5-(thiazol-2-yl)-1H-pyrazol-3-yl)aniline]
Ki [1]: 217 nM

Structure (SMILES): O=C(/C=C/c1ccc2c(c1)OCO2)c1nccs1 [APT-3, (E)-3-(Benzo[d][1,3]dioxol-5-yl)-1-(thiazol-2-yl)prop-2-en-1-one]
Ki [1]: > 894 nM

Structure (SMILES): Brc1csc(-c2cc(-c3ccc4c(c3)OCO4)n[nH]2)n1 [APT-4, 2-(3-(Benzo[d][1,3]dioxol-5-yl)-1H-pyrazol-5-yl)-4-bromothiazole]
Ki [1]: 50 nM and 49.7 nM
selectivity for α-syn over Aβ [1]: > 8 fold
Ki [4]: 1030 ± 562 nM

Structure (SMILES): c1csc(-c2cc(-c3ccc4c(c3)OCO4)n[nH]2)n1 [APT-1, 2-(3-(Benzo[d][1,3]dioxol-5-yl)-1H-pyrazol-5-yl)thiazole]
Ki [1]: 145 ± 46 nM
binding affinity to α-syn fibrils (in words) [1]: moderate affinity
Ki [4]: 561 nM
binding to Aβ fibrils (in words) ([4]; competition against [3H]MODAG-001): significantly lower binding

Structure (SMILES): c1coc(-c2cc(-c3ccc4c(c3)OCO4)n[nH]2)n1 [APT-2, 2-(3-(Benzo[d][1,3]dioxol-5-yl)-1H-pyrazol-5-yl)oxazole]
Ki [1]: 134 nM

Structure (SMILES): COc1ccc(/C=C/c2cc(-c3nccs3)on2)cc1 [11b]
Ki (α-synuclein aggregates): 18.5 ± 9.2 nM
Ki (Aβ1-42): 91.5 ± 58.7 nM

Structure (SMILES): FCCNc1ccc(-c2cc(-c3nccs3)[nH]n2)cc1 [APT-6, N-(2-Fluoroethyl)-4-(5-(thiazol-2-yl)-1H-pyrazol-3-yl)aniline]
Ki [1]: 184 nM
binding affinity to α-syn fibrils (in words) [1]: modest affinity

Structure (SMILES): CN(C)c1ccc(-c2cc(-c3ccnc(Br)c3)[nH]n2)cc1 [MODAG-001]
Kd (α-syn fibrils): 0.6 ± 0.1 nM
Kd (Aβ1-42 fibrils): 20 ± 10 nM

Now from value to compound:

logD [2]: 3.16
stability in human serum (Serum stability assay): did not show evidence of degradation
SUV heart ([3]; n = 3): ≈ 6
SUV liver ([3]; n = 3): ≈ 5
SUV lungs ([3]; n = 3): ≈ 5
peak SUV in brain ([3]; n = 3, dynamic PET 60 min): 1.94 ± 0.29
Structure (SMILES): [11CH3]Nc1ccc(-c2cc(-c3nc(Br)cs3)[nH]n2)cc1 [[^11C]APT-13]

binding affinity to α-syn fibrils (in words) [1]: loss of competition
Structure (SMILES): Cn1nc(-c2ccc3c(c2)OCO3)cc1-c1nc(Br)cs1 [APT-14, 2-(3-(Benzo[d][1,3]dioxol-5-yl)-1-methyl-1H-pyrazol-5-yl)-4-bromothiazole]

Ki [1]: > 14200 nM
Structure (SMILES): Cn1nc(-c2ccc3c(c2)OCO3)cc1-c1nccs1 [APT-8, 2-(3-(Benzo[d][1,3]dioxol-5-yl)-1-methyl-1H-pyrazol-5-yl)thiazole]

Ki [1]: 27.8 ± 9.7 nM
Ki [4]: 92.6 ± 48.8 nM
Structure (SMILES): CNc1ccc(-c2cc(-c3nc(Br)cs3)[nH]n2)cc1 [APT-13, 4-(5-(4-Bromothiazol-2-yl)-1H-pyrazol-3-yl)-N-methylaniline]

Ki [1]: 198 ± 142 nM
Ki [4]: 587 nM
Structure (SMILES): CNc1ccc(/C=C/C(=O)c2nc(Br)cs2)cc1 [APT-12, (E)-1-(4-Bromothiazol-2-yl)-3-(4-(methylamino)phenyl)prop-2-en-1-one]

Ki [1]: 187 nM
binding affinity to α-syn fibrils (in words) [1]: poor binding
Ki [4]: 230 nM
Structure (SMILES): Brc1cnc(-c2cc(-c3ccc4c(c3)OCO4)n[nH]2)s1 [APT-9, 2-(3-(Benzo[d][1,3]dioxol-5-yl)-1H-pyrazol-5-yl)-5-bromothiazole]

Ki [1]: 1010 ± 34 nM
Ki [4]: 377 nM
Structure (SMILES): CNc1ccc(/C=C/C(=O)c2nccs2)cc1 [APT-11, (E)-3-(4-(Methylamino)phenyl)-1-(thiazol-2-yl)prop-2-en-1-one]

Ki [1]: 818.4 ± 1.8 nM
Structure (SMILES): Fc1csc(-c2cc(-c3ccc4c(c3)OCO4)n[nH]2)n1 [APT-10, 2-(3-(Benzo[d][1,3]dioxol-5-yl)-1H-pyrazol-5-yl)-4-fluorothiazole]

Ki [1]: 45 nM and 44.5 nM
selectivity for α-syn over Aβ [1]: > 20 fold
Ki [4]: 381 ± 217 nM
Structure (SMILES): CNc1ccc(-c2cc(-c3nccs3)[nH]n2)cc1 [APT-7, N-Methyl-4-(5-(thiazol-2-yl)-1H-pyrazol-3-yl)aniline]
